Reference: ChEMBL document CHEMBL5303764, “Data for DCP probe BI-3812” (2023)
Activity calls are given as the source filed them. The calls are words filed in the database; no cut-off is given here.

Legend:
[1] = biological target: Vascular endothelial growth factor receptor 2 (Homo sapiens) (UniProt P35968); assay: KDR Invitrogen Lab (UK) kinase screen (BI); conditions: Compound concentration 1.0 uM
[2] = biological target: Insulin receptor (Homo sapiens) (UniProt P06213); assay: INSR Invitrogen Lab (UK) kinase screen (BI); conditions: Compound concentration 1.0 uM
[3] = biological target: Alpha-1D adrenergic receptor (Homo sapiens) (UniProt P25100); conditions: Compound concentration 10.0 uM
[4] = biological target: Muscarinic acetylcholine receptor M1 (Homo sapiens) (UniProt P11229); conditions: Compound concentration 10.0 uM
[5] = biological target: Proto-oncogene tyrosine-protein kinase receptor Ret (Homo sapiens) (UniProt P07949); assay: RET Invitrogen Lab (UK) kinase screen (BI); conditions: Compound concentration 1.0 uM
[6] = biological target: Leucine-rich repeat serine/threonine-protein kinase 2 (Homo sapiens) (UniProt Q5S007); assay: LRRK2 Invitrogen Lab (UK) kinase screen (BI); conditions: Compound concentration 1.0 uM
[7] = biological target: Muscarinic acetylcholine receptor M1 (Homo sapiens) (UniProt P11229); assay: M1/H Eurofins SafetyScreen44 (BI); conditions: Compound concentration 10.0 uM
[8] = biological target: Beta-2 adrenergic receptor (Homo sapiens) (UniProt P07550); assay: BETA2/HUM Eurofins SafetyScreen44 (BI); conditions: filed as antagonist, Compound concentration 10.0 uM
[9] = biological target: voltage-gated Na+ channel (site 2) (Rattus norvegicus, UniProt F1LQQ7+O08562+O88420+O88457+P04774+P04775+P08104+P15389+P15390+Q62968); assay: NA+/SITE2/R Eurofins SafetyScreen44 (BI); type: protein assay; conditions: rat brain, probe [3H]batrachotoxinin, compound concentration 10 uM, read-out: % Ctrl
[10] = biological target: Muscarinic acetylcholine receptor M4 (Homo sapiens, UniProt P08173); assay: GPCRScan assay: inhibition of M4; set-up: radioligand conc. used [nm] 0.3 – 1.0, parental cells stable CHO
[11] = biological target: Serine/threonine-protein kinase Chk2 (Homo sapiens) (UniProt O96017); assay: CHEK2 Invitrogen Lab (UK) kinase screen (BI); conditions: Compound concentration 1.0 uM
[12] = biological target: D(2) dopamine receptor (Homo sapiens) (UniProt P14416); conditions: Compound concentration 10.0 uM
[13] = biological target: GABA-A receptor; anion channel (Rattus norvegicus) (UniProt O09028+P15431+P18506+P18508+P19969+P20236+P23574+P23576+P28471+P28473+P30191+P62813+P63079+P63138+Q91ZM7+Q9ES14); conditions: Compound concentration 10.0 uM
[14] = biological target: Mitogen-activated protein kinase kinase kinase 8 (Homo sapiens) (UniProt P41279); assay: MAP3K8 Invitrogen Lab (UK) kinase screen (BI); conditions: Compound concentration 1.0 uM
[15] = biological target: MAP kinase-activated protein kinase 3 (Homo sapiens) (UniProt Q16644); assay: MAPKAPK3 Invitrogen Lab (UK) kinase screen (BI); conditions: Compound concentration 1.0 uM
[16] = biological target: Serine/threonine-protein kinase Chk1 (Homo sapiens) (UniProt O14757); assay: CHEK1 Invitrogen Lab (UK) kinase screen (BI); conditions: Compound concentration 1.0 uM
[17] = biological target: Prostaglandin G/H synthase 1 (Homo sapiens) (UniProt P23219); assay: COX-1 Eurofins SafetyScreen44 (BI); conditions: Compound concentration 10.0 uM
[18] = biological target: T1, Muscarinic acetylcholine receptor M3 (Homo sapiens, UniProt P20309); assay: GPCRScan assay: inhibition of M3; set-up: radioligand conc. used [nm] 0.3 – 1.0, parental cells stable CHO
Target sequence in this assay (P20309 whole entry): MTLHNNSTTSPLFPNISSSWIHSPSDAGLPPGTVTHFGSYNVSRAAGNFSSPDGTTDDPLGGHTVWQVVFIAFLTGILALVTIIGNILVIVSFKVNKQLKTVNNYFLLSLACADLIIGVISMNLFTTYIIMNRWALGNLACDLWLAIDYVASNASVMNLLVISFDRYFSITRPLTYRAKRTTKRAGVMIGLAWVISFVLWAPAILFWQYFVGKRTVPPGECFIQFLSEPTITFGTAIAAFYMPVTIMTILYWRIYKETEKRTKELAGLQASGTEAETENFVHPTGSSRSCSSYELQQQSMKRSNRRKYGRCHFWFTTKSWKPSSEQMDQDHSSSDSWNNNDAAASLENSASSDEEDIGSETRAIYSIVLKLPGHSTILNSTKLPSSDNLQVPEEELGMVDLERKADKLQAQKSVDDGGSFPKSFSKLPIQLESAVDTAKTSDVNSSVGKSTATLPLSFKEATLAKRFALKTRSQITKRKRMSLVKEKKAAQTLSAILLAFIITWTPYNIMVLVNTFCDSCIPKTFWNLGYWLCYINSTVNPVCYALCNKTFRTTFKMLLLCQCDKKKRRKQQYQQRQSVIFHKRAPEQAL

[19] = biological target: SRSF protein kinase 2 (Homo sapiens) (UniProt P78362); assay: SRPK2 Invitrogen Lab (UK) kinase screen (BI); conditions: Compound concentration 1.0 uM
Rattus norvegicus = organism: Rattus norvegicus; conditions: Compound concentration 10.0 uM
[20] = biological target: B-cell CLL/lymphoma 6 member B protein (Homo sapiens, UniProt Q8N143); assay: SPR (BCL6B), Ontario institute for cancer research
[21] = biological target: Sodium-dependent dopamine transporter (Homo sapiens) (UniProt Q01959); assay: DATRANS/HUM Eurofins SafetyScreen44 (BI); conditions: Compound concentration 10.0 uM
[22] = biological target: Serine/threonine-protein kinase Nek1 (Homo sapiens) (UniProt Q96PY6); assay: NEK1 Invitrogen Lab (UK) kinase screen (BI); conditions: Compound concentration 1.0 uM
[23] = biological target: Ribosomal protein S6 kinase alpha-4 (Homo sapiens) (UniProt O75676); assay: RPS6KA4 Invitrogen Lab (UK) kinase screen (BI); conditions: Compound concentration 1.0 uM
[24] = biological target: D(2) dopamine receptor (Homo sapiens) (UniProt P14416); assay: D2SH_AGON Eurofins SafetyScreen44 (BI); conditions: filed as agonist, Compound concentration 10.0 uM
[25] = biological target: T1, Muscarinic acetylcholine receptor M3; conditions: Compound concentration 10.0 uM
Target sequence in this assay (P20309 whole entry, looked up): as the sequence (P20309 whole entry) above

[26] = biological target: Neuronal acetylcholine receptor; alpha4/beta2 (Homo sapiens) (UniProt P17787+P43681); assay: N_NEURO_A4B2 Eurofins SafetyScreen44 (BI); type: protein-complex assay; conditions: filed as agonist, Compound concentration 10.0 uM
[27] = biological target: Casein kinase I isoform alpha (Homo sapiens) (UniProt P48729); assay: CSNK1A1 Invitrogen Lab (UK) kinase screen (BI); conditions: Compound concentration 1.0 uM
[28] = biological target: D(1B) dopamine receptor (Homo sapiens) (UniProt P21918); conditions: Compound concentration 10.0 uM
[29] = biological target: 5-hydroxytryptamine receptor 2C (Homo sapiens) (UniProt P28335); conditions: Compound concentration 10.0 uM
[30] = biological target: D(4) dopamine receptor (Homo sapiens) (UniProt P21917); conditions: Compound concentration 10.0 uM
[31] = biological target: B-cell lymphoma 6 protein (Homo sapiens, UniProt P41182); assay: BCL6::NCOR LUMIER in cells
[32] = biological target: Muscarinic acetylcholine receptor M4 (Homo sapiens) (UniProt P08173); conditions: Compound concentration 10.0 uM
hERG (KCNH2) = hERG (KCNH2) (Homo sapiens, UniProt Q12809); assay: HERG_DOFETILIDE Eurofins SafetyScreen44 (BI); conditions: probe [3H]dofetilide, compound concentration 10 uM, read-out: % Ctrl
[33] = biological target: Ribosomal protein S6 kinase alpha-5 (Homo sapiens) (UniProt O75582); assay: RPS6KA5 Invitrogen Lab (UK) kinase screen (BI); conditions: Compound concentration 1.0 uM
[34] = biological target: Cannabinoid receptor 2 (Homo sapiens) (UniProt P34972); assay: CB2/PERIPH/H Eurofins SafetyScreen44 (BI); conditions: Compound concentration 10.0 uM
[35] = biological target: Mitogen-activated protein kinase 3 (Homo sapiens) (UniProt P27361); assay: MAPK3 Invitrogen Lab (UK) kinase screen (BI); conditions: Compound concentration 1.0 uM
[36] = biological target: Beta-3 adrenergic receptor (Homo sapiens) (UniProt P13945); conditions: Compound concentration 10.0 uM
[37] = biological target: Kappa-type opioid receptor (Homo sapiens) (UniProt P41145); assay: KAPPA(KOP)_HU Eurofins SafetyScreen44 (BI); conditions: Compound concentration 10.0 uM
[38] = biological target: 5-hydroxytryptamine receptor 3A (Homo sapiens) (UniProt P46098); conditions: Compound concentration 10.0 uM
Sequence of 5-hydroxytryptamine receptor 3A (Homo sapiens) (P46098 whole entry): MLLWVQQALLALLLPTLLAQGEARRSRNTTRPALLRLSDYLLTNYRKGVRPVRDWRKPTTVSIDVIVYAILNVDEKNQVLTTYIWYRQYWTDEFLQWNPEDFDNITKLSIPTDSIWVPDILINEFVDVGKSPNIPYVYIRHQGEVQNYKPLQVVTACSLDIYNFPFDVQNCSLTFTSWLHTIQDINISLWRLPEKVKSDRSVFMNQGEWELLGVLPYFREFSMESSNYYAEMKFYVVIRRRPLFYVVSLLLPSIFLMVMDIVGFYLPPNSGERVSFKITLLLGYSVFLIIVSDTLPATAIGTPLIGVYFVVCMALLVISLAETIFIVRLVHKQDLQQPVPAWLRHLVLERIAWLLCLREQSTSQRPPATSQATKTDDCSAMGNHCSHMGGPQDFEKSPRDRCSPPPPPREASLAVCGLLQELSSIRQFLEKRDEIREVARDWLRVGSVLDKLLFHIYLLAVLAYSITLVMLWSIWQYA

Sequence of D(2) dopamine receptor (Homo sapiens) (P14416 whole entry): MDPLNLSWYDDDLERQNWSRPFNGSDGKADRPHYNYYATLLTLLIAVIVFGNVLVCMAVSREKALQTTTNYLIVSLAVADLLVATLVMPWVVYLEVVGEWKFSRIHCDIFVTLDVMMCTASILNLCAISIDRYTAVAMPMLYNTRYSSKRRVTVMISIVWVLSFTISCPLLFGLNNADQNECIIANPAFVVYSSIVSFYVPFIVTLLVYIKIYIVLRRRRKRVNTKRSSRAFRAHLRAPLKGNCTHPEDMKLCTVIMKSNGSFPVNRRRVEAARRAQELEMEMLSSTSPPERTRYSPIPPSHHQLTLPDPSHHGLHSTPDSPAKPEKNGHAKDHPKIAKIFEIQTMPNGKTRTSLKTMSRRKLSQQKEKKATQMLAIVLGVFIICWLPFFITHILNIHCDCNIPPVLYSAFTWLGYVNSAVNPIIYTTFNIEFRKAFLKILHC
Sequence of Muscarinic acetylcholine receptor M1 (Homo sapiens) (P11229 whole entry): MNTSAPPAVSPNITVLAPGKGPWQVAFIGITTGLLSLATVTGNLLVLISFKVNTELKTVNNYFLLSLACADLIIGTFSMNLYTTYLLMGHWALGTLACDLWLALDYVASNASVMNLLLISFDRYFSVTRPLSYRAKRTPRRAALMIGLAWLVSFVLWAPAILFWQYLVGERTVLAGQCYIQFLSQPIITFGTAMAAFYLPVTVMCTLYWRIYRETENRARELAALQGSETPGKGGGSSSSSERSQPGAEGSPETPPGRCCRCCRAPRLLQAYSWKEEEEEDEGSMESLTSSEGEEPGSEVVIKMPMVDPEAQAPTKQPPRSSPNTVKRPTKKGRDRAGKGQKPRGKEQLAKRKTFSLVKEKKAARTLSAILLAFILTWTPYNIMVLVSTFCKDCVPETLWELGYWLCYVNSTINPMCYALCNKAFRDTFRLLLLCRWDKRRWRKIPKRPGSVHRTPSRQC
Sequence of Muscarinic acetylcholine receptor M4 (P08173 whole entry): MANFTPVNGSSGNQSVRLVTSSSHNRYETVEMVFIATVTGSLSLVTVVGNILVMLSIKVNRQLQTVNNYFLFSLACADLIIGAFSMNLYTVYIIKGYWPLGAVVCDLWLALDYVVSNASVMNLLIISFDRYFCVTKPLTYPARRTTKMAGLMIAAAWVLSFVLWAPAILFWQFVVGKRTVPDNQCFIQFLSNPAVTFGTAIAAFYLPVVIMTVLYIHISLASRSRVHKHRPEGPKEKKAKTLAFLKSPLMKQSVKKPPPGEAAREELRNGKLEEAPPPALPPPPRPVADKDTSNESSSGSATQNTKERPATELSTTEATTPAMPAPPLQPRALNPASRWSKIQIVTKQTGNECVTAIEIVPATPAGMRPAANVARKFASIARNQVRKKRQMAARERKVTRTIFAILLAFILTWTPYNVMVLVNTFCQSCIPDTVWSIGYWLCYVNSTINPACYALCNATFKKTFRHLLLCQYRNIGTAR
Sequence of D(4) dopamine receptor (Homo sapiens) (P21917 whole entry): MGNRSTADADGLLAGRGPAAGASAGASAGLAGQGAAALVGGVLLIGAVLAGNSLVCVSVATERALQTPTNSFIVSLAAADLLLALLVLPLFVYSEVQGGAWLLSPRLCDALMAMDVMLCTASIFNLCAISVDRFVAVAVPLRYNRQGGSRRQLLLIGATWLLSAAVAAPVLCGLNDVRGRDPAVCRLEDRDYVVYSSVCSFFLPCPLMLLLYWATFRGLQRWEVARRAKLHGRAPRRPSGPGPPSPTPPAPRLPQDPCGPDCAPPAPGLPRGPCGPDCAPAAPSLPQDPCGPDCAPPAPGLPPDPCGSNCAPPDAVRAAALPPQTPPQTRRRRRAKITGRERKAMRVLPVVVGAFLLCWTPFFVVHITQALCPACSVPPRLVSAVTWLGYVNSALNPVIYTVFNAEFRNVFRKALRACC
Sequence of Alpha-1D adrenergic receptor (Homo sapiens) (P25100 whole entry): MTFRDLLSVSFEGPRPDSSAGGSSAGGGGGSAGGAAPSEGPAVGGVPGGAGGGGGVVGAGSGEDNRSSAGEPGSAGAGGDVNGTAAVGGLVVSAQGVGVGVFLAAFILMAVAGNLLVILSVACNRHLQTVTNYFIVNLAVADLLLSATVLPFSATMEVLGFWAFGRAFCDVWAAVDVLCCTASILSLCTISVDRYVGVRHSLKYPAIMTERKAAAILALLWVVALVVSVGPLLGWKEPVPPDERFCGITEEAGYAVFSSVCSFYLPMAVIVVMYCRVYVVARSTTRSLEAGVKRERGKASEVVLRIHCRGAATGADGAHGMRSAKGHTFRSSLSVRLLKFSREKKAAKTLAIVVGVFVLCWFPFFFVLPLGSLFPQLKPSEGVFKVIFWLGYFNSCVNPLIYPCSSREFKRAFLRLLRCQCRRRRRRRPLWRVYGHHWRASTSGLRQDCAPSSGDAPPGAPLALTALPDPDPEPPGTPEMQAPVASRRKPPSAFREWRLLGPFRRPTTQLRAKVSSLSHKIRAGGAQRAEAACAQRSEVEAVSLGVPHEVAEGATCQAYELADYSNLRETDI
Sequence of Beta-3 adrenergic receptor (Homo sapiens) (P13945 whole entry, looked up): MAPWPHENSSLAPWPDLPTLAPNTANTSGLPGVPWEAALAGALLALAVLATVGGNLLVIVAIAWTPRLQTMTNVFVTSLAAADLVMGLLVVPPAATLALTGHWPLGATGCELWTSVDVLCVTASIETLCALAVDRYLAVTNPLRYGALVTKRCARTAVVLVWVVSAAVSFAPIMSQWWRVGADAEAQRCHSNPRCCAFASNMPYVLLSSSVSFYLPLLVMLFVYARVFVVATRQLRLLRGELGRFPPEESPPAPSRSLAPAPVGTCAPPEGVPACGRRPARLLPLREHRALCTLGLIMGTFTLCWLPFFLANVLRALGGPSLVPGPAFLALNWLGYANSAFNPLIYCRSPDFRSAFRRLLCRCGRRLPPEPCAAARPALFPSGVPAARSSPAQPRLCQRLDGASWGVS
Sequence of Muscarinic acetylcholine receptor M4 (Homo sapiens) (P08173 whole entry): as the sequence (P08173 whole entry) above
Sequence of D(1B) dopamine receptor (Homo sapiens) (P21918 whole entry): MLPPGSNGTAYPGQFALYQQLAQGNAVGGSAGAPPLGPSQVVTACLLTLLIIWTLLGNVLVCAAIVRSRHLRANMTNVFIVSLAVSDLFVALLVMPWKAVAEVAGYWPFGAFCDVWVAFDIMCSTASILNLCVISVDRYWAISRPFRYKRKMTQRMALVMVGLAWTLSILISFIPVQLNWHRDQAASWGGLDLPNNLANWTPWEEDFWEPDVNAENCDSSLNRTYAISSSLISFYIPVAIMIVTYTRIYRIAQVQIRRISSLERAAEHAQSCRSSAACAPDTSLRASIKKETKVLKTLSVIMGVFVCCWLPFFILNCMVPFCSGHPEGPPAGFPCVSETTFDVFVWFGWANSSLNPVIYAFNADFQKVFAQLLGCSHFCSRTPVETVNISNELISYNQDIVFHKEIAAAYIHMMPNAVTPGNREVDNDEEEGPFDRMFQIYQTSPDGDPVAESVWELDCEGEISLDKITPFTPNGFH
Sequence of 5-hydroxytryptamine receptor 2C (Homo sapiens) (P28335 whole entry): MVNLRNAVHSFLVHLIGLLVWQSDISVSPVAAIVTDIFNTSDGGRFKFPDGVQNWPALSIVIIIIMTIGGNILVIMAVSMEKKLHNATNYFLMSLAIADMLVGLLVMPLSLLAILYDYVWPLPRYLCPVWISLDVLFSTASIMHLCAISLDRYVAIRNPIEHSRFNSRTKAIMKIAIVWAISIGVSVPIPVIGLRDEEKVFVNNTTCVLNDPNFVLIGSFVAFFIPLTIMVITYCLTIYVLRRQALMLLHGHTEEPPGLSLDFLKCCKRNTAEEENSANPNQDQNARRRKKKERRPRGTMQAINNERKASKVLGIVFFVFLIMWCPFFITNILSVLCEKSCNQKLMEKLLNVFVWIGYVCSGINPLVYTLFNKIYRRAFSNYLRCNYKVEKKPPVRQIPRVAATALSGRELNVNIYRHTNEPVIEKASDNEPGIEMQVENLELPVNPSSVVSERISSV

CNC(=O)COc1cc2cc(Nc3nc(N4CCC(C(=O)N(C)C)CC4)ncc3Cl)cc(OC)c2n(C)c1=O
residual activity [1]: 98% | residual activity [2]: 93% | inhibition [3]: 2.72% | inhibition [4]: 12.9% | residual activity [5]: 95% | residual activity [6]: 111% | residual activity [7]: 15% | residual activity [8]: 92% | activity at 10 µM [9]: 84% (not active) | Ki ([10]; read-out: Ki): 878 nM | Ki ([10]; read-out: pKi (converted)): 851 nM | residual activity [11]: 93% | inhibition [12]: 1.86% | inhibition [13]: 39.6% | residual activity [14]: 86% | residual activity [15]: 99% | residual activity [16]: 91% | residual activity [17]: 118% | Ki [18]: > 10000 nM | pKi [18]: < 5 | residual activity [19]: 103% | inhibition (Rattus norvegicus): 49.5% | Kd [20]: 3680 nM (not active) | residual activity [21]: 101% | residual activity [22]: 98% | residual activity [23]: 93% | residual activity [24]: 101% | inhibition [25]: 65.8% | residual activity [26]: 98% | residual activity [27]: 91% | inhibition [28]: 3.05% | inhibition [29]: -2.05% | inhibition [30]: 17.7% | IC50 [31]: 40 nM (active) | inhibition [32]: 74.1% | activity at 10 µM (hERG (KCNH2)): 92% (not active) | residual activity [33]: 103% | residual activity [34]: 113% | residual activity [35]: 95% | inhibition [36]: 4.51% | residual activity [37]: 83% | inhibition [38]: 28.1%
